Test results reported in patent US11559538B2, “Substituted 1,2-oxaborolan-2-ols as PDE4 inhibitors” (Pfizer Inc., priority 2018, dated 2023).
Like-named read-outs stand apart in the source and are kept apart here.

Columns and labels:
[1] = test system: IFNγ; test: Cytokine assay: IFNγ release from PHA-L stimulated human PBMCs; type: cell-based
Protocol: (§1) Cytokine inhibitory activity is determined by measuring the effect of test agent on the release of the cytokines IL-4, IL-13 and IFNγ from human peripheral blood mononuclear cells (PBMCs) stimulated with the T-cell mitogen phytohemagglutinin-L (PHA-L). At the time of assay, human PBMCs (Astarte Biologics) are removed from cryopreservation, thawed quickly at 37° C., diluted in assay medium (RPMI-Gibco 1640 medium, 10% heat inactivated fetal bovine serum (HIFBS), 2 mM glutamine and 10 mM HEPES pH 7.4) and then centrifuged at 250×g for 5 minutes. The resulting cell pellet is re-suspended in assay medium to a concentration of approximately 5×10^6 cells/mL and 50 μL of this cell suspension (approximately 250,000 cells) is added to each well of a 384-well cell culture microtiter plate (Perkin Elmer). Varying concentrations of test compound are then diluted in assay medium and added to the assay plate wells in a volume of 25 μL. After −10 minutes at room temperature (21° C.) the cells are stimulated by the addition of 25 μL of PHA-L (14 μg/mL; Millipore) and the assay plate is placed in an incubator at 37° C. in a humidified environment in 5% carbon dioxide. The final assay conditions are approximately 250,000 human PBMCs per well in assay medium containing 3.5 μg/mL PHA-L and the indicated final concentration of test compound (approximately 10 μM to […] by 4-fold dilution). The final concentration of DMSO in the assay is approximately 0.25%. After 48 hours, the assay plate is removed from the incubator and centrifuged at 250×g for 5 minutes. A portion of the resulting cell supernatant is then used to determine the amount of IL-4, IL-13 and IFNγ in each well. Cytokine measurements are made using human IL-4, IL-13 or IFNγ HTRF assay kits (CisBio) following the manufacturer's assay protocol. The concentrations and resulting effect values for tested compounds are plotted and the concentration of compound required for 50% effect (IC50) is determined with a four-parameter logistic dose response equation (E-WorkBook, ID Business Solutions Ltd.) and shown in Table 17.

[2] = biological target: PDE4B (aa 152-484, Uniprot ID Q07343) (Homo sapiens (Human), UniProt Q07343); test: PDE4 SPA assay (scintillation proximity assay); type: biochemical; details: read-out: PDE4B2 IC50
Chain of PDE4B (aa 152-484, Uniprot ID Q07343) (Q07343 324-656): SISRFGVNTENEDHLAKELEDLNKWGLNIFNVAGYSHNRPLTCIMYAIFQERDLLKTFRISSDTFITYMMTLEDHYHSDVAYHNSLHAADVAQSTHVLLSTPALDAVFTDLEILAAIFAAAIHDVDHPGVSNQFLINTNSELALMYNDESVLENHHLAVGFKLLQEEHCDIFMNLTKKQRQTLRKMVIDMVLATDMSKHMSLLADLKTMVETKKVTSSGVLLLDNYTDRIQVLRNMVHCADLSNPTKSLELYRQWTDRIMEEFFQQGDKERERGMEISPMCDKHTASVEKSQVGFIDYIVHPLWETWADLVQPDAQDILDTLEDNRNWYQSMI
Protocol: Phosphodiesterase (PDE) activity is determined by measuring the effect of a test agent on the activity of the PDE4B enzyme in a scintillation proximity assay (SPA). At the time of assay, approximately 30 μL of PDE4B (aa 152-484, Uniprot ID Q07343) in 50 mM Tris pH 7.5, 1.3 mM MgC2, 0.004% Brij 35 is added to a 384 well white clear bottom polystyrene plate (Corning) containing 1 μL of varying concentrations of test compound. After −10 minutes at room temperature (RT; 21° C.), the assay is initiated by the addition of 20 μL of a mixture of ^3H-labeled (adenosine 3′, 5′-cyclic phosphate, ammonium salt, [2,8-^3H]; Perkin Elmer) and unlabeled cAMP. The final assay conditions are approximately 81.6 pM PDE4B in 50 mM Tris pH 7.5, 1.3 mM MgCl2, 0.004% Brij 35, 1 μM ^3H-labeled/unlabeled cAMP (1425 dpm/pmol) and the indicated final concentration of test compound (approximately 10 μM to […] by 4-fold dilution). The final concentration of DMSO in the assay is approximately 2.0%. After 30 minutes at RT, the assay is terminated by the addition of approximately 20 μL of an aqueous solution of PDE YSI SPA beads (8 mg/mL in water; Perkin Elmer). The beads are allowed to settle for at least 2 hours and the plate is then counted on a MicroBeta2 (Perkin Elmer). The concentrations and resulting effect values for the tested compound are plotted and the concentration of compound required for 50% effect (IC50) is determined with a four-parameter logistic dose response equation (E-WorkBook, ID Business Solutions Ltd.) and shown in Table 17.

[3] = test system: IL-13; test: Cytokine assay: IL-13 release from PHA-L stimulated human PBMCs; type: cell-based; details: read-out: IL13 IC50
Protocol: as §1

[4] = test system: IL-4; test: Cytokine assay: IL-4 release from PHA-L stimulated human PBMCs; type: cell-based; details: read-out: IL4 IC50
Protocol: as §1

CCCOc1cc(-c2cc(C3COB(O)C3)cc(CO)n2)ccc1OC (stereo not shown) [Example 202, 4-(2-(hydroxymethyl)-6-(4-methoxy-3-propoxyphenyl)pyridin-4-yl)-1,2-oxaborolan-2-ol]
IC50 ([1]; Homo sapiens, PBMC): 8.51 nM | IC50 [2]: 4.29 nM | IC50 ([3]; Homo sapiens, PBMC): 1670 nM | IC50 ([4]; Homo sapiens, PBMC): 5.2 nM

CCCOc1nc(-c2cncc(C3COB(O)C3)c2)c(F)cc1OC (single isomer, unassigned) [Example 16, 4-(3-fluoro-5-methoxy-6-propoxy-[2,3′-bipyridin]-5′-yl)-1,2-oxaborolan-2-ol]
IC50 [1]: 0.82 nM | IC50 [2]: 0.05 nM | IC50 [3]: 126 nM | IC50 [4]: 0.54 nM

CCCOc1cc(-c2cncc(C3COB(O)C3)c2)cnc1OC (single isomer, unassigned) [Example 18, 4-(6′-methoxy-5′-propoxy-[3,3′-bipyridin]-5-yl)-1,2-oxaborolan-2-ol]
IC50 ([1]; Homo sapiens, PBMC): 2.23 nM | IC50 [2]: 0.74 nM | IC50 ([3]; Homo sapiens, PBMC): 218 nM | IC50 ([4]; Homo sapiens, PBMC): 1.91 nM

COc1cc(-c2ccc(OC)c(OC3CCCC3)c2)nc(C2COB(O)C2)n1 (single isomer, unassigned; enantiomer 2) [Example 176, 4-(4-(3-(cyclopentyloxy)-4-methoxyphenyl)-6-methoxypyrimidin-2-yl)-1,2-oxaborolan-2-ol, enantiomer 2]
IC50 ([1]; Homo sapiens, PBMC): 2.98 nM | IC50 [2]: 5.51 nM | IC50 ([3]; Homo sapiens, PBMC): 1140 nM | IC50 ([4]; Homo sapiens, PBMC): 6.51 nM

CCCOc1cc(-c2cccc(C3=C(C)B(O)OC3)n2)ccc1OC [Example 28, 4-(6-(4-methoxy-3-propoxyphenyl)pyridin-2-yl)-3-methyl-1,2-oxaborol-2(5H)-ol]
IC50 ([1]; Homo sapiens, PBMC): 201 nM | IC50 [2]: 10.8 nM | IC50 ([3]; Homo sapiens, PBMC): 8010 nM | IC50 ([4]; Homo sapiens, PBMC): 1040 nM

COc1ccc(-c2cncc(C3COB(O)C3)c2)cc1OCCF (stereo not shown) [Example 39, 4-(5-(3-(2-fluoroethoxy)-4-methoxyphenyl)pyridin-3-yl)-1,2-oxaborolan-2-ol]
IC50 ([1]; Homo sapiens, PBMC): 1.82 nM | IC50 [2]: 1.63 nM | IC50 ([3]; Homo sapiens, PBMC): 182 nM | IC50 ([4]; Homo sapiens, PBMC): 13.8 nM

CCCOc1cc(-c2nc(C3COB(O)C3)ns2)ccc1OC (stereo not shown) [Example 148]
IC50 [1]: 1.68 nM | IC50 [2]: 0.24 nM | IC50 [3]: 759 nM | IC50 [4]: 4.92 nM

COc1ccc(-c2nc(C3COB(O)C3)cs2)cc1OC (stereo not shown) [Example 159, 4-(2-(3,4-dimethoxyphenyl)thiazol-4-yl)-1,2-oxaborolan-2-ol]
IC50 ([1]; Homo sapiens, PBMC): 25.1 nM | IC50 [2]: 15.1 nM | IC50 ([3]; Homo sapiens, PBMC): 931 nM | IC50 ([4]; Homo sapiens, PBMC): 468 nM

CCOc1cc(-c2cccc(C3COB(O)C3)c2)ccc1SC (stereo not shown) [Example 172, 4-(3′-ethoxy-4′-(methylthio)-[1,1′-biphenyl]-3-yl)-1,2-oxaborolan-2-ol]
IC50 ([1]; Homo sapiens, PBMC): 27.5 nM | IC50 [2]: 1.76 nM | IC50 ([3]; Homo sapiens, PBMC): 1110 nM | IC50 ([4]; Homo sapiens, PBMC): 269 nM

COc1ccc(-c2cncc(C3COB(O)C3)c2)cc1OC1CCSC1 (stereo not shown) [Example 78, 4-(5-(4-methoxy-3-((tetrahydrothiophen-3-yl)oxy)phenyl)pyridin-3-yl)-1,2-oxaborolan-2-ol]
IC50 [1]: 1.35 nM | IC50 [2]: 0.55 nM | IC50 [3]: 416 nM | IC50 ([4]; Homo sapiens, PBMC): 19.1 nM

CCOc1cc(-c2cncc(C3COB(O)C3)c2)c(F)cc1OC (single isomer, unassigned) [Example 14, 4-(5-(5-ethoxy-2-fluoro-4-methoxyphenyl)pyridin-3-yl)-1,2-oxaborolan-2-ol]
IC50 ([1]; Homo sapiens, PBMC): 1.85 nM | IC50 [2]: 1.5 nM | IC50 ([3]; Homo sapiens, PBMC): 91 nM | IC50 ([4]; Homo sapiens, PBMC): 3.21 nM

CCCOc1cc(-c2nc(C3COB(O)C3)cc(C(F)(F)F)n2)ccc1OC (single isomer, unassigned) [Example 23, 4-(2-(4-methoxy-3-propoxyphenyl)-6-(trifluoromethyl)pyrimidin-4-yl)-1,2-oxaborolan-2-ol]
IC50 ([1]; Homo sapiens, PBMC): 0.85 nM | IC50 [2]: 0.97 nM | IC50 ([3]; Homo sapiens, PBMC): 132 nM | IC50 ([4]; Homo sapiens, PBMC): 0.61 nM

COc1cc(-c2ccc(OC)c(OC)c2)cc(C2COB(O)C2)c1 (stereo not shown) [Example 157, 4-(3′,4′,5-trimethoxy-[1,1′-biphenyl]-3-yl)-1,2-oxaborolan-2-ol]
IC50 ([1]; Homo sapiens, PBMC): 5.62 nM | IC50 [2]: 2.96 nM | IC50 ([3]; Homo sapiens, PBMC): 906 nM | IC50 ([4]; Homo sapiens, PBMC): 190 nM
